Data as given in ChEMBL document CHEMBL5465560, “Selectivity Literature for EUbOPEN Chemogenomic Library” (2024).

How the values were obtained:
[1] = molecular target: Serine/threonine-protein kinase 38 (Homo sapiens) (UniProt Q15208); assay: Selectivity interaction (Kinase panel (KiNativ target engagement assay in Jurkat cells)) EUB0001635a STK38; type: cell-based; conditions: Selectivity number of off-targets 0.0, Selectivity number of targets 233.0, Source Knowledge https://www.sciencedirect.com/science/article/pii/S2451945619300674?via%3Dihub, at 1 µM
[2] = molecular target: T1, Serine/threonine-protein kinase ULK2 (Homo sapiens) (UniProt Q8IYT8); assay: Selectivity interaction (KinomeScan (DiscoverX)) EUB0000229b ULK2; conditions: at 10 µM
T1 sequence (whole entry): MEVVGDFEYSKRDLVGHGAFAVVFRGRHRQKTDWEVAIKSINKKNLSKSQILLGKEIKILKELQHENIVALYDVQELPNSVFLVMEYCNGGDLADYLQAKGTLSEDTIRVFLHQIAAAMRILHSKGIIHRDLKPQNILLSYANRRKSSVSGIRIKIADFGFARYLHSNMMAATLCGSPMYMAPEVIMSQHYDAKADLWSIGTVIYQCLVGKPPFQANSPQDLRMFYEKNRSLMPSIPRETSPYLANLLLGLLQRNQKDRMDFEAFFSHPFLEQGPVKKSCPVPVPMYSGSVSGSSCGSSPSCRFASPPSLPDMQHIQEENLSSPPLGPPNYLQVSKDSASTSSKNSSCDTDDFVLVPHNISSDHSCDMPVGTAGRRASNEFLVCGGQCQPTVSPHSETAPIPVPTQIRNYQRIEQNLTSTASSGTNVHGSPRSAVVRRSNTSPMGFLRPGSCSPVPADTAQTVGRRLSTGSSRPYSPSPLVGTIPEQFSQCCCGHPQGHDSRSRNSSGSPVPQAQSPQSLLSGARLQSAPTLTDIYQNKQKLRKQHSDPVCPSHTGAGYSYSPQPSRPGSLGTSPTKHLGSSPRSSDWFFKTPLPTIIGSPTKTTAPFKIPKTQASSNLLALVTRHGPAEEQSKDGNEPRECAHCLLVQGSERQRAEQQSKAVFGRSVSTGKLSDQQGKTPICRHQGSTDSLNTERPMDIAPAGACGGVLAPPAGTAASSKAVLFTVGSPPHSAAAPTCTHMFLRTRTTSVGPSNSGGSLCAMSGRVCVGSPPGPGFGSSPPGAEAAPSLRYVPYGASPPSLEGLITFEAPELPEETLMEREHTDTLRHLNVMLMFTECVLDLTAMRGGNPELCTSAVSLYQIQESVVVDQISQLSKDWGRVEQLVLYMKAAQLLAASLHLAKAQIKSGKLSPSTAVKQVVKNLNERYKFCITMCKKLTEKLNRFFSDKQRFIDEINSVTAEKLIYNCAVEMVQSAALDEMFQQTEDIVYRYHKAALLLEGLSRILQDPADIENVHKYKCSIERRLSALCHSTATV

[3] = molecular target: Serine/threonine-protein kinase/endoribonuclease IRE1 (Homo sapiens) (UniProt O75460); assay: Selectivity interaction (KinomeScan (DiscoverX)) EUB0000045b ERN1
[4] = molecular target: Casein kinase I isoform delta (Homo sapiens, UniProt P48730); conditions: at 10 µM
[5] = molecular target: Tyrosine-protein kinase ABL1 (Homo sapiens, UniProt P00519); assay: Selectivity interaction (Kinase panel (33PanQinase(R) Activity Assay)) EUB0000877a ABL1
[6] = molecular target: Maternal embryonic leucine zipper kinase (Homo sapiens) (UniProt Q14680); assay: Selectivity interaction (KinomeScan (DiscoverX)) EUB0001619a MELK; conditions: at 1 µM
[7] = molecular target: Cyclin-dependent kinase 7 (Homo sapiens, UniProt P50613); assay: Selectivity interaction (KinomeScan (DiscoverX)) EUB0000607a CDK7; conditions: at 10 µM
[8] = molecular target: T2, Serine/threonine-protein kinase D3 (Homo sapiens) (UniProt O94806); assay: Selectivity interaction (KinomeScan (DiscoverX)) EUB0000607a PRKD3; conditions: at 10 µM
T2 sequence (whole entry): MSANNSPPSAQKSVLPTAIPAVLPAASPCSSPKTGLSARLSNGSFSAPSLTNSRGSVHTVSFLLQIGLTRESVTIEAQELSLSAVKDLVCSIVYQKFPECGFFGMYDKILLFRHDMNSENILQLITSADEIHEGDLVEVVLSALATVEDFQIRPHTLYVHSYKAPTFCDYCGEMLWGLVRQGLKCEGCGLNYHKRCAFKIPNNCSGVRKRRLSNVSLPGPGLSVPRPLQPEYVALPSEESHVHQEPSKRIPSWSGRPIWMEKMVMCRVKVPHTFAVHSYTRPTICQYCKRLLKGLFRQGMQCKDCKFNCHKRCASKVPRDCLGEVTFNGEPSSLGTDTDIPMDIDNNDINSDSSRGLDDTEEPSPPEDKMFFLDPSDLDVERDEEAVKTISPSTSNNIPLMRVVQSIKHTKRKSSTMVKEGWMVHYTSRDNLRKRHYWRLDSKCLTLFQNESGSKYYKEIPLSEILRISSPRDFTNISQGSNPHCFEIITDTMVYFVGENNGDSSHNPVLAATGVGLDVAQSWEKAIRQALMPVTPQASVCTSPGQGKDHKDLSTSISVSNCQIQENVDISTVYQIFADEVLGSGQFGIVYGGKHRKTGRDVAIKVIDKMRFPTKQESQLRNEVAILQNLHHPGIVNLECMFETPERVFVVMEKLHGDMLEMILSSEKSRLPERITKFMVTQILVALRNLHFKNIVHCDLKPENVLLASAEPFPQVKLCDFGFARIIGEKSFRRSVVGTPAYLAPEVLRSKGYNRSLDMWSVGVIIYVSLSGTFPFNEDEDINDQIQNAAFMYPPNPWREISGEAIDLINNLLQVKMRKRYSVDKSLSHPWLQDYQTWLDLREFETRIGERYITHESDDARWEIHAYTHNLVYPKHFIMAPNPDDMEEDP

[9] = molecular target: Serine/threonine-protein kinase 32B (Homo sapiens) (UniProt Q9NY57); assay: Selectivity interaction (KinomeScan (DiscoverX)) EUB0000092b STK32B; conditions: at 10 µM
[10] = molecular target: Macrophage-stimulating protein receptor (Homo sapiens, UniProt Q04912); assay: Selectivity interaction (KinomeScan (DiscoverX)) EUB0000092b MST1R; conditions: at 10 µM
[11] = molecular target: T3, Casein kinase I isoform alpha-like (Homo sapiens) (UniProt Q8N752); assay: Selectivity interaction (Ambit KINOMEscan and KiNATiv profiling in Jurkat cells) EUB0000090b CSNK1A1L; type: cell-based; conditions: at 1 µM
T3 sequence (whole entry): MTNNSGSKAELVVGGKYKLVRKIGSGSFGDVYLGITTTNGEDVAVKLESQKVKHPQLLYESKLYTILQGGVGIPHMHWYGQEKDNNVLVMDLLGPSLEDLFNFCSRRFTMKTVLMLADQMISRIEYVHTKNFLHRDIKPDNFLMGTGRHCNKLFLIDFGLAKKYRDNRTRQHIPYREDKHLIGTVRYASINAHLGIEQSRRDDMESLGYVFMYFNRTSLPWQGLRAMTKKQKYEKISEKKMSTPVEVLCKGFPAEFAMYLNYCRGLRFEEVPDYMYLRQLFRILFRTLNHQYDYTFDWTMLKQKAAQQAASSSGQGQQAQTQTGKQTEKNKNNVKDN

Chain of Serine/threonine-protein kinase/endoribonuclease IRE1 (Homo sapiens) (O75460 19-977 limits assumed): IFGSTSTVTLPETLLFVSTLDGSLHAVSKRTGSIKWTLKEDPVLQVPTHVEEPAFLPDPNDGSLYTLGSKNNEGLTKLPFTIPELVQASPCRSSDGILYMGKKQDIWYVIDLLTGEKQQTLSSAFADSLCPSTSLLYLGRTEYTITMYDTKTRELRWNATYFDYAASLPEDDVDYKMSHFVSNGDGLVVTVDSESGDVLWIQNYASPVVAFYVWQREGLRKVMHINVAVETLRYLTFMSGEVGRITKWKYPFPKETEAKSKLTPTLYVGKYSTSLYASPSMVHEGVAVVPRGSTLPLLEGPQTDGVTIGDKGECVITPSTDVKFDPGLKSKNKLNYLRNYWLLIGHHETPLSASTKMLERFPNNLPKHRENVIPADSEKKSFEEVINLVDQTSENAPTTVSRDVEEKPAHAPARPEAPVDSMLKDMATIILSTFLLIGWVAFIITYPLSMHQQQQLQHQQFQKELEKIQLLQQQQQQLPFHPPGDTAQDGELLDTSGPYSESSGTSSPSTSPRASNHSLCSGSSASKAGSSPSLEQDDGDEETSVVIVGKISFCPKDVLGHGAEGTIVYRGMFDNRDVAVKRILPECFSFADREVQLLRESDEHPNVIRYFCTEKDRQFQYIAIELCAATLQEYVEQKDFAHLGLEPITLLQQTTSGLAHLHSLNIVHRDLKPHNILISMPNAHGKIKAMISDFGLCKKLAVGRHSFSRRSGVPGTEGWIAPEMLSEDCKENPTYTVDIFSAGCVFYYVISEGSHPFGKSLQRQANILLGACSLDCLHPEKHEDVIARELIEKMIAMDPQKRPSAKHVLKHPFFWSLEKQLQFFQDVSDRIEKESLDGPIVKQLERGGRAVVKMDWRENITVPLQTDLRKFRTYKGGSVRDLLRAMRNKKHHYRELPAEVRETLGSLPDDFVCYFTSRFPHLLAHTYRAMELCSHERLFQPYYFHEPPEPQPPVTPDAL
Chain of Macrophage-stimulating protein receptor (Q04912 25-304 limits assumed): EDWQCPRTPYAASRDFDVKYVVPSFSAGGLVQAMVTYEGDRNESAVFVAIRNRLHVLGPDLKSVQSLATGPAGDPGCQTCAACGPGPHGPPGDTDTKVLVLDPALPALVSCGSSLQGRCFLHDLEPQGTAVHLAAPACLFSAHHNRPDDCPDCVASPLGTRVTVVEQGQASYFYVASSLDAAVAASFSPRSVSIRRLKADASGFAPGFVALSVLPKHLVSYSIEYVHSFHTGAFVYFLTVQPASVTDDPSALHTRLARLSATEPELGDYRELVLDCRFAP
Chain of Macrophage-stimulating protein receptor (Q04912 310-1400 limits assumed): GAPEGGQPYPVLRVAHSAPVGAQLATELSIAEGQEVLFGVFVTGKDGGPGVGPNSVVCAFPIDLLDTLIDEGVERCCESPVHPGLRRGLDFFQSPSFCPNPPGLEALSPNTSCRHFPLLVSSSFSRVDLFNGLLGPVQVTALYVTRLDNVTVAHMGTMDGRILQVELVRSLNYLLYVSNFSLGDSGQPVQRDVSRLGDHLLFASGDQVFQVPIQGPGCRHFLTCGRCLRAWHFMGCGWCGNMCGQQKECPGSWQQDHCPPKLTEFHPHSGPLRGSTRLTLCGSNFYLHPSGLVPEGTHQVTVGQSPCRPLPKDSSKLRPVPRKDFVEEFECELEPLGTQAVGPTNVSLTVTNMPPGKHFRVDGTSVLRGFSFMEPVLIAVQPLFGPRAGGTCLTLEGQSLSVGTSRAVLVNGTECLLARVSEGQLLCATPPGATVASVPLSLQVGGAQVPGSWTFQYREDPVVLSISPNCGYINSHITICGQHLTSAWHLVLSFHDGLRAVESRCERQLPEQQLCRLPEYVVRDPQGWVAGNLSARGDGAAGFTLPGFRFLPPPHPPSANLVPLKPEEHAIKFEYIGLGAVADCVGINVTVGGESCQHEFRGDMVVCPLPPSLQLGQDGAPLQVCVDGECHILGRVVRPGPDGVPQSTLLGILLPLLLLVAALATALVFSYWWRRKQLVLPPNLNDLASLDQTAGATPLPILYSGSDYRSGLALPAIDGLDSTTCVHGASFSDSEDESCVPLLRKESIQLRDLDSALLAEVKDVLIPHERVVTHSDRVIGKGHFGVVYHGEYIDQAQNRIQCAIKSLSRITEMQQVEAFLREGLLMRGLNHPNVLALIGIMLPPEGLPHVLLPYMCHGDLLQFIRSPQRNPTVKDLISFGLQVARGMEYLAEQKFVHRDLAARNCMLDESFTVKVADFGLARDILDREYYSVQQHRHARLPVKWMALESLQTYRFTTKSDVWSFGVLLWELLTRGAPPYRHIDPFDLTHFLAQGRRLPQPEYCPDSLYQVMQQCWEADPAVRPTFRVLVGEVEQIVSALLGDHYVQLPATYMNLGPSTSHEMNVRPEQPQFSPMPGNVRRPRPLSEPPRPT
Chain of Cyclin-dependent kinase 7 (P50613 whole entry): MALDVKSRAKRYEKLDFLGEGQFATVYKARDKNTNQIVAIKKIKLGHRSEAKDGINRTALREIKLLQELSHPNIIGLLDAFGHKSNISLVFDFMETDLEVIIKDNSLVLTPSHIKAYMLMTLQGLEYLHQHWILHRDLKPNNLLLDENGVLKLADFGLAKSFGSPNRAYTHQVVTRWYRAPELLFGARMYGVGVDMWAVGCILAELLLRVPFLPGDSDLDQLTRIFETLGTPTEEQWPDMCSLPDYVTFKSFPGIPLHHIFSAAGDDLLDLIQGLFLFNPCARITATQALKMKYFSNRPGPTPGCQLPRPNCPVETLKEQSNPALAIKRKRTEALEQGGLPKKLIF
Chain of Tyrosine-protein kinase ABL1 (P00519 whole entry): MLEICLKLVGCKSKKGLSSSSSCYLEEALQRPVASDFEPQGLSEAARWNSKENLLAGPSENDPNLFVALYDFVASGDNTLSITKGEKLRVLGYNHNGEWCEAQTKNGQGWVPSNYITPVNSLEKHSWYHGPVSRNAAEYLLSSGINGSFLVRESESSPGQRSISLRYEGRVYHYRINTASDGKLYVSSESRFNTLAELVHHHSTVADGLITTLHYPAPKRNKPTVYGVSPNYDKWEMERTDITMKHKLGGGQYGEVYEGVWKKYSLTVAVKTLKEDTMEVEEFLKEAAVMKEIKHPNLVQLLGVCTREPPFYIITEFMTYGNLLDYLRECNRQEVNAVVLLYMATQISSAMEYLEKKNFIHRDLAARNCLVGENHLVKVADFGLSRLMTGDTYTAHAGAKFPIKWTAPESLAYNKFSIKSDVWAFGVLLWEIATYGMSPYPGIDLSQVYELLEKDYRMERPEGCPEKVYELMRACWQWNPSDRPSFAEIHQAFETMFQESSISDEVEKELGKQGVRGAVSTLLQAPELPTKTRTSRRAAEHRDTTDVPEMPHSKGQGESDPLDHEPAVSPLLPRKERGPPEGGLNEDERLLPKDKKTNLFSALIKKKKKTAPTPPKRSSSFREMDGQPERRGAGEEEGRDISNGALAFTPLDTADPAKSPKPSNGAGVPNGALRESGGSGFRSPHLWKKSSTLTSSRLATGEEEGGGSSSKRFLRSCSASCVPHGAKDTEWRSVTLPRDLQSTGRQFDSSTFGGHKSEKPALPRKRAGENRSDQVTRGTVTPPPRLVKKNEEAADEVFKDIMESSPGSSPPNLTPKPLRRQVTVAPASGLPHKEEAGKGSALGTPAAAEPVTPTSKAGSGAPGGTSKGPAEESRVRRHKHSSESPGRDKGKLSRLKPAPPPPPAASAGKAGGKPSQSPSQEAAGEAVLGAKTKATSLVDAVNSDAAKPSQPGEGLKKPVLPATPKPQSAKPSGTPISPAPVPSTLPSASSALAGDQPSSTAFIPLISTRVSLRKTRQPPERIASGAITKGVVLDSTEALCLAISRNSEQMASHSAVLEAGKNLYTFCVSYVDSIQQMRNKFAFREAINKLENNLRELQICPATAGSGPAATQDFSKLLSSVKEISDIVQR
Chain of Serine/threonine-protein kinase 38 (Homo sapiens) (Q15208 2-465 limits assumed): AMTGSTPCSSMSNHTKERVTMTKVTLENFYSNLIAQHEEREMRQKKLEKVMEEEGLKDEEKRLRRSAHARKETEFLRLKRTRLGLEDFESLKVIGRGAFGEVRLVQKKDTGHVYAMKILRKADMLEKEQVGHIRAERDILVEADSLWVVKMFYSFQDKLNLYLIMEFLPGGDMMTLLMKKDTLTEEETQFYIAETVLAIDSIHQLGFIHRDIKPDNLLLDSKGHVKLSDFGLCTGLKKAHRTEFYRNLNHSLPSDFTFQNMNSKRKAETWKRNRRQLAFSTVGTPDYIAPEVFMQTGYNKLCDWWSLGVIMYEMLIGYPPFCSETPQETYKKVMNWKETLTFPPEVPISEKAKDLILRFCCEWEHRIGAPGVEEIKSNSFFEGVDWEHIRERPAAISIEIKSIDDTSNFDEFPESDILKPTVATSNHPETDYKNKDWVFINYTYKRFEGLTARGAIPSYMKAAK
Chain of Maternal embryonic leucine zipper kinase (Homo sapiens) (Q14680 whole entry, looked up): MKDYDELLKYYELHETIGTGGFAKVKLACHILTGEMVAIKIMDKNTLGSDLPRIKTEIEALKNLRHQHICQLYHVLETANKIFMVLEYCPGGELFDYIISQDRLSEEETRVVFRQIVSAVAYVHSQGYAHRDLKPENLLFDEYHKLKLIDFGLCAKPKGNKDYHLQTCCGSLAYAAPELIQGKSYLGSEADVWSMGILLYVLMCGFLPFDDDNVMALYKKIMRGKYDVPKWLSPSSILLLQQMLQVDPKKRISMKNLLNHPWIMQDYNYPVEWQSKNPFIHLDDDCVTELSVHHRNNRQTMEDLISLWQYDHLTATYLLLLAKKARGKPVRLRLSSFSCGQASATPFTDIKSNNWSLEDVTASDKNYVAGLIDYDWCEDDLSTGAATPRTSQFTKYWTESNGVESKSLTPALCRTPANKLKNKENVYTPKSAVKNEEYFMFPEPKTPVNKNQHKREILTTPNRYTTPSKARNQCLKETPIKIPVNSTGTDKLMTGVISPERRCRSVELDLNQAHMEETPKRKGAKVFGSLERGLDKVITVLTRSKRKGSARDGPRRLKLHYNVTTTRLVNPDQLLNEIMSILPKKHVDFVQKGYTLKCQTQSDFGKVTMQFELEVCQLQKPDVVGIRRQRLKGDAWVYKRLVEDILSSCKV

C=CC(=O)Nc1ccc(C(=O)Nc2[nH]nc3c2CN(C(=O)N[C@H](CN(C)C)c2ccccc2)C3(C)C)cc1
% of engagement [1]: 0.3%

COc1cc(N(C)c2ccnc3ccc(C(F)(F)F)cc23)cc(OC)c1OC
% binding [2]: 86%

C=CC(=O)Nc1cc(-n2c(=O)ccc3cnc4ccc(-c5ccc(NS(C)(=O)=O)cc5)cc4c32)ccc1C
% of control ([3]; at 1 µM): 100%
% of control ([3]; at 10 µM): 99%

Cc1cc([C@@H](C)Nc2ccccc2C(=O)O)c2nc(N3CCOCC3)cc(=O)n2c1 [AZD-6482]
% of control [4]: 86%

CCC(=O)N1CC[C@H](Nc2ncnc3c2CN(c2cnc(OC)c(C(F)(F)F)c2)CC3)C1 [LENIOLISIB]
IC50 [5]: > 10 µM

N#Cc1cccc(-c2c[nH]c3ncnc(N4CCOCC4)c23)c1
% of control [6]: 69%

CNC(=O)Nc1ccc(-c2nc(N3CC4CCC(C3)O4)c3cnn(C4CCC5(CC4)OCCO5)c3n2)cc1
% of control [7]: 88%
% of control [8]: 100%

CCC(=O)N1CCN(c2ccc(-n3c(=O)ccc4cnc5ccc(-c6cnc7ccccc7c6)cc5c43)cc2C(F)(F)F)CC1
% of control [9]: 87%
% of control [10]: 55%

CN(C)C/C=C/C(=O)Nc1ccc(C(=O)N2CCCC(Nc3ncc(Cl)c(-c4c[nH]c5ccccc45)n3)C2)cc1 (configuration not stated)
% of control [11]: 65%
